EP1985629A1, “Pro-apoptotic molecules and therapeutic uses thereof” (UNIVERSITA DEGLI STUDI DI GENOVA, priority 2007, dated 2008)
Where a SMILES comes first, the peptide text is derived from it. [ ]: non-standard residue; d: D form. Aib = CC(C)(N)C(=O)O

How the values were obtained:
Bcl-XL = molecular target: T1, Bcl-XL (Homo sapiens, UniProt Q07817, S2L); assay: Fluorescence anisotropy binding and competition binding assay; details: competition binding assay: BakF-BH3 2E-8 M, competitor peptide 2E-7 M, Bcl-XL 2E-8 M to 1E-6 M; 45 min, 30°C; read-out: Weighted mean Kd
T1 construct: with the C-terminus truncated; His6; made in house; host or cells: Escherichia coli BL21 (pLys)
T1 sequence (Q07817 1-212 S2L): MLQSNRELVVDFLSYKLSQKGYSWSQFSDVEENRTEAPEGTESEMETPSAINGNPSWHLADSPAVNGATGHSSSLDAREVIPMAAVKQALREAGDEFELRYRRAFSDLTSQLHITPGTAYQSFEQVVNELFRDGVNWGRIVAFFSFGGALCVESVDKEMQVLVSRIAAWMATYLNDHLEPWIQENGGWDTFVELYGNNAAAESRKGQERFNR
Protocol: Fluorescence Anisotropy was monitored with a Polarion Instrument (Tecan, Austria): excitation wavelength = 485 nm, emission wavelength = 535 nm. […] Anisotropy values were studied at a fixed concentration of fluoresceinated Bak BH3 molecule (2E-8 M), a fixed concentration of peptide inhibitors (2E-7 M) and increasing concentrations of Bel-XL (from 2E-8 M to 1E-6 M). Experiments were performed in 96-wells black non-binding plates (Corning), the experimental volume was always 200 µl / well. Reagents were mixed at room temperature and maintained at a constant temperature (30°C) during the measurements. Anisotropy measurements were performed at different times of incubation to assess the stability of the reactions. […]
For simple binding experiments we evaluated the Kd using a nonlinear regression analysis [NLIN SAS] to fit the Lundblad equation [38]. […]
We calculated the expected Anisotropy value solving a third degree equation obtained extending the simple binding equation to a competitive binding inhibition assay. […]
Point estimates of each equilibrium constant were evaluated using meta-analytical tools weighting each experimental result for its estimated variance. […]
Fluorescence Anisotropy (FA) is a quantitative technique to analyze the interaction of a smaller fluorescent molecule with a larger non fluorescent molecule. […]

[1] = Circular dichroism, relative content of secondary structure elements; type: physicochemical; design: key to α-Helix / β-Strands / β-Turns / Random: relative content as fraction, from CDSSTR deconvolution; details: CDSSTR deconvolution
Protocol: Circular dichroism (CD) spectra in the far-UV region (190-260 nm) were collected on a Jasco J-715 spectropolarimeter using a 0.1 cm path-length cuvette. Temperature was kept at 25°C by a Peltier device. Peptide concentration was determined from the absorption of the aromatic residues at 280 nm.
Peptides solutions: Bim-BH3Y and Bim-BH3YA2Aib were suspended in water and potassium hydroxide was added up to complete solubilization. 072RB was dissolved in water. Concentration of stock solutions was about 0.1 mg/ml. For circular dichroism measurements, stock solutions were diluted in 10 mM potassium phosphate buffer, pH 7.
The relative content of secondary structure elements was calculated with the deconvolution program CDSSTR [31] (Table 2). […] 072RB has the highest helical content in the set examined here (0.30 α-helix percent).

[2] = system: U937 and Jurkat cell lines; assay: Detection of mitochondrial permeability transition (DiOC6 fluorescence); type: cell-based, human; details: two cell lines, 4 days, 5 and 10 µM, two independent experiments
[3] = system: peripheral blood lymphocytes (PBL); assay: Viability of normal peripheral blood lymphocytes; type: cell-based, human; details: for ratio of viable cells, treated versus untreated: two pulses at a 48 h interval, four days, mean ± SE
Protocol: The leukemic myelomonocytic cell line U937, the T cell leukaemia cell line Jurkat, the Burkitt lymphoma cell line Namalwa were grown in RPMI 1640 medium supplemented with 10% FBS, 1% sodium pyruvate, 1% non essential aminoacids, 1% penicillin/streptomycin. 2.5·10^4 cells were seeded on 48 wells plates (Corning Costar). The treatment was performed on triplicate wells. Drug concentration ranged from 1 µM up to 30 µM, four treatments every 24 h or two treatments every 48 h were performed. Human peripheral blood lymphocytes obtained from healthy volunteers by venipuncture, were isolated by lymphocyte separation medium (Ficoll) density gradient centrifugation. Mononuclear cells from the interphase were washed twice with PBS and resuspended in RPMI 1640 medium containing 10% FCS, glutamine and antibiotics. Phytohemagglutinin (PHA) was added at 1.5 µg/ml final concentration.
PI uptake tests were performed to assess cell viability. Cells suspended in culture medium were incubated for 5 min with 3 µg/ml PI and analysed by flow cytometry. […] At least 10,000 events were acquired on a logarithmic scale from each sample.
Bone marrow aspirates from patients with different leukaemia types were plated in tissue culture medium supplemented with 20% FCS, treated with 072RB twice every 48 h, and followed for 4 days. They were evaluated by flow cytometry DNA/SSC analysis, In Table 3 we show the percentage of [early + late apoptotic cells], according to leukaemia type and Int or 072RB dosage. To further study sensitivity to 072RB of normal cells, peripheral blood lymphocytes (PBL) isolated from four independent healthy donors were subjected to a four-days treatment with 10 µM 072RB. Treatment was performed, as usual, with two pulses at a 48 h interval. Lymphocytes were either un-stimulated or activated by PHA. […] Comparing treated and untreated normal peripheral lymphocytes, the ratio of viable cells between the two groups was 0.87 ± 0.05 (mean ± SE) for quiescent lymphocytes and 0.82 ± 0.057 for proliferating lymphocytes. This effect of 072RB on normal lymphocytes seems especially small if we consider the effects observed in leukaemia cell lines (see supplementary information), and also the effects observed in AML cells from ex vivo experiments: 0.55 ± 0.145 (mean ± SE). Table 3: Effect of 072RB on haematological malignancies (AML: acute myeloid leukaemia; ALL: acute lymphoid leukaemia; NBM: normal bone marrow): percentage of early/late apoptotic cells. Mean values from duplicate experiments are reported. The difference between the two individual values never exceeded 15% of the mean value. Ex vivo isolated cells were treated with either Int or 072RB at day 0, 2 (5, 10 µM), at day 0, 1, 2, 3 (1, 3 µM) and analysed after PI staining at day 4.

Namalwa cells = assay: Morphologic analysis of apoptosis (PI, confocal microscopy); type: cell-based, human; details: PI labeled Namalwa cells; and 48 h (072RB), 48 h (Int)
Protocol: After extensive washes, samples were incubated with PI (50µg/ml in PBS) and 100 units/ml Rnase type A and 10 mM EDTA (to inactivate endogenous nucleases) for 15 min at room temperature. After three washes, cells were put on a micro-slide, covered with a coverslip and analysed with an IX81 microscope equipped with He-Neon […] laser, suitable for PI fluorescence excitation (FV500, Olympus BioSystem). 10-15 fields were analysed with 40x oil/1.35NA or 60x oil/1.40NA objectives and images acquired with the Flowview 4.2b computer program.

[4] = relative content, 10 mM potassium phosphate buffer, pH 7, 25°C

CC[C@H](C)[C@H](NC(=O)[C@H](CCCNC(=N)N)NC(=O)[C@H](CCCNC(=N)N)NC(=O)[C@H](CC(C)C)NC(=O)[C@H](CCC(=O)O)NC(=O)[C@H](CCC(N)=O)NC(=O)C(C)(C)NC(=O)[C@@H](NC(=O)[C@H](Cc1ccc(O)cc1)NC(=O)[C@@H](NC(=O)[C@H](CCC(=O)O)NC(=O)[C@@H]1CCCN1C(=O)[C@H](CCCNC(=N)N)NC(=O)[C@H](CCSC)NC(=O)[C@@H](N)CC(=O)O)[C@@H](C)CC)[C@@H](C)CC)C(=O)NCC(=O)N[C@@H](CC(=O)O)C(=O)N[C@@H](C)C(=O)N[C@@H](Cc1ccccc1)C(=O)N[C@@H](CC(N)=O)C(=O)NC(C)(C)C(=O)N[C@@H](Cc1ccc(O)cc1)C(=O)N[C@@H](CCCCN)C(=O)N[C@@H](CCCCN)C(=O)N[C@@H](Cc1c[nH]c2ccccc12)C(=O)N[C@@H](CCCCN)C(=O)N[C@@H](CCSC)C(=O)N[C@@H](CCCNC(=N)N)C(=O)N[C@@H](CCCNC(=N)N)C(=O)N[C@@H](CC(N)=O)C(=O)N1CCC[C@H]1C(=O)N[C@@H](Cc1ccccc1)C(=O)N[C@@H](Cc1c[nH]c2ccccc12)C(=O)N[C@H](C(=O)N[C@@H](CCCCN)C(=O)N[C@H](C(=O)N[C@@H](CCC(N)=O)C(=O)N[C@@H](CCCNC(=N)N)C(N)=O)[C@@H](C)CC)[C@@H](C)CC [Peptide 072RB] (H-DMRPEIYI[Aib]QELRRIGDAFN[Aib]YKKWKMRRNPFWIKIQR-NH2; N-terminus and C-terminus assumed)
Kd (Bcl-XL): 4.3 nM | relative content of helices [1]: 0.30 α-helix percent | Random [1, 4]: 0.42 | α-Helix [1, 4]: 0.30 | β-Strands [1, 4]: 0.12 | β-Turns [1, 4]: 0.15 | MPT (reduced DiOC6 fluorescence) [2]: clear MPT effects | effect on cell viability and cell proliferation ([3]; normal peripheral lymphocytes, data not reported): cytostatic rather than cytotoxic | ratio of viable cells, treated versus untreated ([3]; proliferating (PHA activated) lymphocytes, 10 µM): 0.82 ± 0.057 | toxicity ([3]; quiescent lymphocytes, 10 µM): quite negligible | ratio of viable cells, treated versus untreated ([3]; quiescent lymphocytes, 10 µM): 0.87 ± 0.05 | chromatin condensation and apoptotic body formation (Namalwa cells): exhibited chromatin condensation and apoptotic body formation
